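Five concentrations, 48 hours, 96-well plates. GI50: concentration for 50% inhibition of growth.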 Calls of active or inactive are those of the source. No stated cut-off is given here; in the data, active = GI50 up to about 1.1 µM and inactive = higher.
Columns and labels:
Assay in all cases: inhibition of tumour cell growth, NCI panel, 48 h
DU-145 = tested on: DU-145
Hs-578T = tested on: Hs-578T
MDA-MB-231 = tested on: MDA-MB-231
MDA-MB-435 = tested on: MDA-MB-435
MDA-N = tested on: MDA-N
PC-3 = tested on: PC-3
LXFL 529 = tested on: LXFL 529
RXF 631 = tested on: RXF 631

Measured: GI50

CCC(=O)NC(Nc1ccc(O)cc1)(C(F)(F)F)C(F)(F)F
inactive: DU-145 > 100 µM | Hs-578T > 100 µM | MDA-MB-231 73.8 µM | MDA-MB-435 25.2 µM | MDA-N 17.9 µM

CCOC(=O)C1(CO)CSCCSC1
inactive: DU-145 > 100 µM | Hs-578T > 100 µM | MDA-MB-231 > 100 µM | MDA-MB-435 > 100 µM | MDA-N > 100 µM | PC-3 > 100 µM

CCn1c(=O)c2c3ccc(O)cc3[nH]c2c2ccc(O)cc21
inactive: DU-145 > 100 µM | Hs-578T 44.1 µM | MDA-MB-231 64.4 µM | MDA-MB-435 61 µM | MDA-N 66.4 µM | PC-3 > 100 µM

O=C(O)c1cc([N+](=O)[O-])cc2c(=O)c3cnccc3[nH]c12
inactive: DU-145 > 100 µM | Hs-578T > 100 µM | MDA-MB-231 > 100 µM | MDA-MB-435 > 100 µM | MDA-N > 100 µM | PC-3 29.6 µM

CC(C)c1cccc(C(C)C)c1NC(=S)Nc1ccccc1
inactive: LXFL 529 > 100 µM | RXF 631 > 100 µM

O=S(=O)(CF)OCCCCOS(=O)(=O)CF
inactive: LXFL 529 > 100 µM | RXF 631 > 100 µM

C=CCOC1OC(CS(=O)(=O)O)C(OC(C)=O)C(OC(C)=O)C1OC(C)=O (configuration not stated)
inactive: DU-145 > 100 µM | Hs-578T > 100 µM | MDA-MB-435 > 100 µM | MDA-N > 100 µM | PC-3 > 100 µM
